{"source": "patent US20070161542A1", "about": "“Ptb1b photoprobes” (priority 2003, published 2007)", "key": {"Flag-TCPTP": {"target": "T1, Flag-TCPTP (Homo sapiens, UniProt P17706)", "T1 construct": "Flag-TCPTP (residues 1-281 as a flag fusion); made in house", "T1 sequence (P17706 1-281)": "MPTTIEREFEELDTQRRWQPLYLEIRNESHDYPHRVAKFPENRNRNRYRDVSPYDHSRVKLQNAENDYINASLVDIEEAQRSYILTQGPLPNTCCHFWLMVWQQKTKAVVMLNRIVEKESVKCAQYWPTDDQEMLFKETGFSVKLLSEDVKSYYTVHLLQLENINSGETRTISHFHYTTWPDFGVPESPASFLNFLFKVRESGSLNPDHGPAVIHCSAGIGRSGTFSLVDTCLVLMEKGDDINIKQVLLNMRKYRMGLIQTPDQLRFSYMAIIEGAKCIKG", "test": "Enzyme kinetic assay (DiFMUP), Flag-TCPTP", "format": "biochemical", "conditions": "in the dark, 10 μM DiFMUP", "source_text": "(§1) Protein tyrosine phosphatases used in this study were expressed and purified using published procedures, as follows: (a) Flag-PTP1B (residues 1-320 as a flag fusion), Huyer et al. (29). (b) Flag-TCPTP (residues 1-281 as a flag fusion), Asante-Appiah et al. (30). (c) Flag-CD45 (residues 556-1268 as a flag fusion), Wang et al. (31). (d) Mutant C215S-PTP1B (residues 1-320 as a gst fusion), Skorey et al. (28). (e) Infected SF9 cell lysate expressing full-length PTP1B (as a flag fusion), Cromlish et al. (25). For studies using H2O2-inactivated Flag-PTP1B, 100 μl of 2 μg/ml PTP1B was incubated with 100 μl of 1 mM or 20 mM H2O2 for 15 min to obtain 50% or 100% inactivated enzyme respectively as determined by the enzyme kinetic assay.\n(§2) Kinetic measurements were performed using a Spectromax Gemini fluorescent plate reader (Molecular Devices, Sunnyvale, Calif.) in a 96-well plate format. […] The conversion of DiFMUP to DiFMU was monitored continuously for 5 min with excitation at 360 nm and emission at 450 nm (cutoff filter at 435 nm). […] Ki values were determined by non-linear regression fit of the initial rates versus substrate concentration at various inhibitor concentrations using the kinetic equation software from Grafit software (Erithacus Software)."}, "Flag-PTP1B(1-320)": {"target": "T2, Flag-PTP1B(1-320) (Homo sapiens, UniProt P18031)", "T2 construct": "Flag-PTP1B (residues 1-320 as a flag fusion); made in house", "T2 sequence (P18031 1-320)": "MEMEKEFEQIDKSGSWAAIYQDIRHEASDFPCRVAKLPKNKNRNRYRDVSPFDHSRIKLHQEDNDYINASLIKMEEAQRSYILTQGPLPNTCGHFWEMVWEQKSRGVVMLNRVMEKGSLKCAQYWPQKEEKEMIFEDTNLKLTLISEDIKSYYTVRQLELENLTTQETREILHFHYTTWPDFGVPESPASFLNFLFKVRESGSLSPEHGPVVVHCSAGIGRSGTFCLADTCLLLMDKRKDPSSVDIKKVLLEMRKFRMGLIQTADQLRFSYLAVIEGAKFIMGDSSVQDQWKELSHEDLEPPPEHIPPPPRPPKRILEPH", "test": "Enzyme kinetic assay (DiFMUP), Flag-PTP1B", "format": "biochemical", "conditions": "for IC50 shift in the presence of 0.1% protein: 0.1% protein (HSA) vs none; for IC50: in the dark; for Ki: non-irradiated probes, competitive, reversible inhibitors of PTP1B", "source_text": "as §1\nKinetic measurements were performed using a Spectromax Gemini fluorescent plate reader (Molecular Devices, Sunnyvale, Calif.) in a 96-well plate format. Briefly, to 170 μl of BisTris buffer (50 mM BisTris, with and without 150 mM NaCl, 2 mM EDTA, 5 mM DMH, pH 6.3) containing 0-100 μM DiFMUP with or without 0.1% human serum albumin was added 10 μl of 10 or 50 μM photoprobe in water in a three-fold serial dilution. The reaction was initiated by the addition of 20 μl of 0.04 μg/ml Flag-PTP1B, Flag-TCPTP (0.04 μg/ml) or Flag-CD45 (0.01 μg/ml) in BisTris buffer containing 20% glycerol and 0.01% Triton X-100. The conversion of DiFMUP to DiFMU was monitored continuously for 5 min with excitation at 360 nm and emission at 450 nm (cutoff filter at 435 nm). IC50 values were calculated by nonlinear regression fit of the initial rates versus inhibitor concentration obtained using 10 μM DiFMUP using the Softmax Pro software (version 3.11, Molecular Devices). Ki values were determined by non-linear regression fit of the initial rates versus substrate concentration at various inhibitor concentrations using the kinetic equation software from Grafit software (Erithacus Software)."}, "Flag-CD45": {"target": "T3, Flag-CD45 (Mus musculus, UniProt P06800)", "T3 construct": "Flag-CD45 (residues 556-1268 as a flag fusion); made in house", "T3 sequence (P06800 581-1293 limits assumed)": "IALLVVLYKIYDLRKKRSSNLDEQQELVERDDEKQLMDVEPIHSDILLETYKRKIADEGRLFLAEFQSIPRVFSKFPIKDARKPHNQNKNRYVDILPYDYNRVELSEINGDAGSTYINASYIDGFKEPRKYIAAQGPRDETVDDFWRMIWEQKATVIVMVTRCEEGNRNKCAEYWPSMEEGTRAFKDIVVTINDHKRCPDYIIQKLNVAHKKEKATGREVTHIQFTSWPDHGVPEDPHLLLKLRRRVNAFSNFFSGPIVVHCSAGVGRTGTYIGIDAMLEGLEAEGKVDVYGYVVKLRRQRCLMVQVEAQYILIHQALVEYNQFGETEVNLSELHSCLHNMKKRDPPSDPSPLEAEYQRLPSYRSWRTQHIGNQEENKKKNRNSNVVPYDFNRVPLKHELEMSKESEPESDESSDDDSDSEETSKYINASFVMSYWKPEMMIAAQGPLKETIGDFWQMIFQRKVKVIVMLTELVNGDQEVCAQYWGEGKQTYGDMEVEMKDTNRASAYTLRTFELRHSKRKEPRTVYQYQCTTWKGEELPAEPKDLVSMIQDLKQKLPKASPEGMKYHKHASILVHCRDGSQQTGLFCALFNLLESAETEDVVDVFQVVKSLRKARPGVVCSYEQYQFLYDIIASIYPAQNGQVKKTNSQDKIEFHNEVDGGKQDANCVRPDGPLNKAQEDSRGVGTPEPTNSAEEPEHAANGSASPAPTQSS", "test": "Enzyme kinetic assay (DiFMUP), Flag-CD45", "format": "biochemical", "conditions": "Flag-CD45, in the dark, 10 μM DiFMUP", "source_text": "as §1, §2"}, "[1]": {"test": "Photolysis of the probes in water (time course, quantum yield)", "format": "physicochemical", "conditions": "chemical actinometry; absorbance at 345 and 350 nm for Examples 9 and 1", "method": "A time course for photolysis of the probes in water was determined by measuring product formation by HPLC-MS. […] Based on the time course of photolysis of an aqueous probe with a 40 W lamp, t1/2 values of about 2 min were measured using the 40 W lamp. When a 450 W lamp was used, the t1/2 was reduced to less than 30 sec.\nThe quantum yield of the photoprobes was determined from the number of photons absorbed and the number of moles of photolysis product that were formed. The number of photons absorbed was determined by chemical actinometry, using the method of Parker (26). The moles of irradiated product produced over time was measured by measuring the absorbance at 345 and 350 nm for Examples 9 and 1 respectively. The quantum yield was calculated to be 0.83 and 0.74 for Examples 9 and 1 respectively."}, "[2]": {"conditions": "Flag-PTP1B(1-320), 10 μM DiFMUP"}}, "data": [{"smiles": "NC(=O)[C@H](Cc1ccc(C(F)(F)P(=O)(O)O)cc1)NC(=O)[C@H](Cc1ccc(C(F)(F)P(=O)(O)O)cc1)NC(=O)c1cc(I)cc(C2(C(F)(F)F)N=N2)c1", "note": "[Example 9, 4-(Difluoro(phosphono)methyl)-N-(3-iodo-5-(3-(trifluoromethyl)-3H-diaziren-3-yl)benzoyl)-L-phenylalanyl-4-(difluoro(phosphono)methyl)-L-phenylalaninamide]", "values": [{"measurement": "IC50", "setting": "Flag-TCPTP", "value": 6, "unit": "nM"}, {"measurement": "IC50 shift in the presence of 0.1% protein", "setting": "Flag-PTP1B(1-320)", "value": "not significantly affected"}, {"measurement": "IC50", "setting": "Flag-PTP1B(1-320); Fla-PTP1B + 0.1% HSA", "value": 14, "unit": "nM"}, {"measurement": "IC50", "setting": "Flag-PTP1B(1-320); [2]", "value": 11, "unit": "nM"}, {"measurement": "Ki", "setting": "Flag-PTP1B(1-320)", "value": 5, "unit": "nM"}, {"measurement": "IC50", "setting": "Flag-CD45", "value": 12600, "unit": "nM"}, {"measurement": "quantum yield", "setting": "[1]", "value": 0.83}]}, {"smiles": "NC(=O)[C@H](Cc1ccc(C(F)(F)P(=O)(O)O)c(Br)c1)NC(=O)[C@H](Cc1ccc(C(F)(F)P(=O)(O)O)c(Br)c1)NC(=O)c1cc(I)cc(C2(C(F)(F)F)N=N2)c1", "note": "[Example 1, Tetraamnionium 3-bromo-4-(difluoro(phosphonato)methyl)-N-(3-iodo-5-(3-(trifluoromethyl)-3H-diaziren-3-yl)benzoyl)-L-phenylalanyl-3-bromo-4-(difluoro(phosphonato)methyl)-L-phenylalaninamide]", "values": [{"measurement": "IC50", "setting": "Flag-TCPTP", "value": 0.1, "unit": "nM"}, {"measurement": "IC50 shift in the presence of 0.1% protein", "setting": "Flag-PTP1B(1-320)", "value": 7, "unit": "fold"}, {"measurement": "IC50", "setting": "Flag-PTP1B(1-320); Fla-PTP1B + 0.1% HSA", "value": 1.5, "unit": "nM"}, {"measurement": "IC50", "setting": "Flag-PTP1B(1-320); [2]", "value": 0.2, "unit": "nM"}, {"measurement": "Ki", "setting": "Flag-PTP1B(1-320)", "value": 0.1, "unit": "nM"}, {"measurement": "IC50", "setting": "Flag-CD45", "value": 490, "unit": "nM"}]}]}
